From patent US20090023646A1, “GHRH analogues” (Centre Hospitalier de L'Universite de Montreal (CHUM), priority 2002, published 2009)
Read-outs that look alike come from different tables or passages of the source. Square brackets hold non-standard residues; d marks the D form. Peptide text beside a SMILES is read from it.

Experiments:
human GHRH receptor = target: T1, human GHRH receptor (Homo sapiens, UniProt Q02643); assay: Competitive 125I-GHRH binding assay in BHK cell membrane preparations expressing the human GHRH receptor
T1 construct: expressed in transfected cells; host or cells: BHK (baby hamster kidney) 570 cells
T1 sequence (Q02643 23-423): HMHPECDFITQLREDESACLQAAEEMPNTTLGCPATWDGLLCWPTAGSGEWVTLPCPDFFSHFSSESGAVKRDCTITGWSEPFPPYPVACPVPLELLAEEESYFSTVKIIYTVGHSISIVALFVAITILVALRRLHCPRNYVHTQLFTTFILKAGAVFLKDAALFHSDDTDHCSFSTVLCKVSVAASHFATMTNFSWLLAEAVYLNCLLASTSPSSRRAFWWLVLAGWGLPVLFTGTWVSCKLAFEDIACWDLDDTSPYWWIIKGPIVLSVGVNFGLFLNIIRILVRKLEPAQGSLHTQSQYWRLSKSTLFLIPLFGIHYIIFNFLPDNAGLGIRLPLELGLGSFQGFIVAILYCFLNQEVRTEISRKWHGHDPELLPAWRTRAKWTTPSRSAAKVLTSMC
Description: Non specific binding was determined in presence of 1 μM hGHRH(1-29)NH2. Incubation was carried out at equilibrium (23° C., 60 min) and stopped by centrifugation (12,000 g, 5 min, at 4° C.). The radioactivity content in pellets was determined by gamma counting. The affinity of hGHRH(1-29) NH2 was tested in each experiment to assess the validity of the assay and determine the relative affinity of the analogues.
Values represent the mean±SEM of 3 experiments performed in triplicate for the analogues and the mean±SEM of 2 experiments performed in triplicate for hGHRH(1-44) NH2.
For the binding assay results presented in Tables 8 to 11, values represent the mean±SEM of 8 independent experiments performed in triplicate for the analogues and the mean±SEM of 4 experiments performed in triplicate for hGHRH(1-29)NH2. […] The relative affinity was obtained by taking the ratio IC50 of hGHRH (1-29)-NH2/IC50 analogue.

[1] = In vitro proteolysis assay in rat serum; type: in vitro ADME; conditions: mean±SEM
Description: Proteolysis was stopped by adding 800 μl of ice-cold stop buffer (potassium-phosphate buffer, acidified to pH 0.8 with trifluoroacetic acid (TFA) and boiling 5 min (rat serum only). After centrifugation (12000 g, 5 min, 4° C.) (rat serum only), serum-peptide mixtures were passed through a conditioned Sep-Pak C-18 cartridge to extract native GHRH or a GHRH analogue residual concentrations from serum proteins. The native GHRH or the analogue was eluted in 2 ml of 50% acetonitrile-0.01% TFA/50% 0.01% aqueous TFA. Two hundred μl of extracted peptide, representing 1 μg of GHRH or analogue at time 0, was quantified by analytical HPLC, using one μ-Bondapak C18 column (10 μm particle size, 0.39×15 cm) (rat serum) or two C18 column in series (human serum and plasma) and a binary solvent system composed of NaClO4 0.01 M, pH 2.5 and acetonitrile. A linear gradient from 30 to 60% acetonitrile over 45 min (rat serum) or 30 to 50% (human serum and plasma) was used.

male Beagle dog = assay: In vivo GH secretion after escalating SC injections in a male Beagle dog; conditions: AUC not measured
Description: The ability of human GHRH analogue #5 (human [D-Ala^2, D-Tyr^10, D-Ala^15, Lys^22] GHRH (1-29)NH2 analogue) to stimulate GH secretion was studied in adult female rats (26-34 weeks at onset of treatment) and in a male Beagle dog.
Human GHRH analogue #5, in 0.9% sodium chloride for injection USP, was administered on days 3, 5 and 8 at dose levels of 0.01, 0.1, and 1 mg/kg body weight, respectively by subcutaneous (SC) injection to an approximately 8-month old male dog as shown in Table 3. On Day 1, the dog received the control (vehicle) article and on Day 11, the animal received the positive control, hGHRH (1-44)NH2 at a dose level of 0.01 mg/kg. Prior to administration, all dosing formulations were filtered using a 0.22 μm filter to ensure sterility. The actual amount of GHRH analogue #5 administered was calculated and adjusted based on the animal's most recent body weight. Dosing started at approximately the same time each day, commencing at 9:00 am±30 minutes. […]
Plasma GH was determined by Linco Diagnostic Services using their own kit. Linco's Porcine/Canine Growth Hormone radioimmunoassay kit (RIA) (PGH-46HK) has been developed to quantitate Growth Hormone in plasma, serum, and tissue culture media. […]

[2] = In vitro proteolysis assay in human serum; type: in vitro ADME
Description: Ten μl of a 300 M solution of hGHRH (1-29)NH2 or of a GHRH analogue was solubilized in dimethylsulfoxide (DMSO) and incubated in one of the following conditions: a—190 μl serum (1/100 dilution in picopure water) from 2-month-old male Sprague Dawley rats, at 37° C. for 0, 8, 15, 30 or 60 min, in polypropylene tubes; b—190 μl of human healthy volunteer plasma (from Human Whole Blood Na EDTA, males, drug free (Algorithme Pharma Inc.); project: MTL-P2-155; Lot: MTLP2155-01, supplied by LAB Dev Int); and c—190 μl of human healthy volunteer pooled serum, Lot: X409 (supplied by LAB Dev Int), at 37° C. for 0, 60, 120, 180 or 420 min, in polypropylene tubes. Proteolysis was stopped by adding 800 μl of ice-cold stop buffer (potassium-phosphate buffer, acidified to pH 0.8 with trifluoroacetic acid (TFA) and boiling 5 min (rat serum only). After centrifugation (12000 g, 5 min, 4° C.) (rat serum only), serum-peptide mixtures were passed through a conditioned Sep-Pak C-18 cartridge to extract native GHRH or a GHRH analogue residual concentrations from serum proteins. The native GHRH or the analogue was eluted in 2 ml of 50% acetonitrile-0.01% TFA/50% 0.01% aqueous TFA. Two hundred μl of extracted peptide, representing 1 μg of GHRH or analogue at time 0, was quantified by analytical HPLC, using one μ-Bondapak C18 column (10 μm particle size, 0.39×15 cm) (rat serum) or two C18 column in series (human serum and plasma) and a binary solvent system composed of NaClO4 0.01 M, pH 2.5 and acetonitrile. A linear gradient from 30 to 60% acetonitrile over 45 min (rat serum) or 30 to 50% (human serum and plasma) was used.
More specifically, the values represent the mean, standard deviation and standard error from the mean of 3 to 7 experiments.

With CC[C@H](C)[C@H](NC(=O)[C@H](C)NC(=O)[C@H](CC(=O)O)NC(=O)[C@@H](C)NC(=O)[C@@H](N)Cc1ccc(O)cc1)C(=O)N[C@@H](Cc1ccccc1)C(=O)N[C@H](C(=O)N[C@@H](CC(N)=O)C(=O)N[C@@H](CO)C(=O)N[C@H](Cc1ccc(O)cc1)C(=O)N[C@@H](CCCNC(=N)N)C(=O)N[C@@H](CCCCN)C(=O)N[C@H](C(=O)N[C@@H](CC(C)C)C(=O)N[C@H](C)C(=O)N[C@@H](CCC(N)=O)C(=O)N[C@@H](CC(C)C)C(=O)N[C@@H](CO)C(=O)N[C@@H](C)C(=O)N[C@@H](CCCNC(=N)N)C(=O)N[C@@H](CCCCN)C(=O)N[C@@H](CCCCN)C(=O)N[C@@H](CC(C)C)C(=O)N[C@@H](CCC(N)=O)C(=O)N[C@@H](CC(=O)O)C(=O)N[C@H](C(=O)N[C@@H](CCSC)C(=O)N[C@@H](CO)C(=O)N[C@@H](CCCNC(=N)N)C(N)=O)[C@@H](C)CC)C(C)C)[C@@H](C)O [GHRH analogue #5, [D-Ala^2, D-Tyr^10, D-Ala^15, Lys^22] hGHRH(1-29)-NH2] (H-Y[dA]DAIFTNS[dY]RKVL[dA]QLSARKKLQDIMSR-NH2) the IC50 (human GHRH receptor; Table 7, mean±SEM of 3 experiments (analogue) or 2 experiments (hGHRH(1-44)NH2) in triplicate) was “no significant difference was observed”, the “Relative binding affinity (R1) in comparison with hGHRH(1-29)NH2 in BHK cells expressing the hGHRH receptor” value (human GHRH receptor; ratio IC50 of hGHRH(1-29)-NH2/IC50 analogue, mean±SEM) was 939 ± 249 and the Residual concentration ([1]; incubation 0 min) was 100 ± 0 % of initial concentration. For the same compound, the Residual concentration ([1]; incubation 60 min) was “significantly higher than that of either GHRH analogue 1, 2 or 3”, the remaining at 8 min, 15 µM ([1]; male, Sprague Dawley, diluted 1/100, incubation 8 min, read-out: Residual concentration) was 92 ± 5% and the remaining at 0.25 h, 15 µM ([1]; male, Sprague Dawley, diluted 1/100, incubation 15 min, read-out: Residual concentration) was 82 ± 6%. The remaining at 0.5 h, 15 µM ([1]; male, Sprague Dawley, diluted 1/100, incubation 30 min, read-out: Residual concentration) was 74 ± 7%, the remaining at 1 h, 15 µM ([1]; male, Sprague Dawley, diluted 1/100, incubation 60 min, read-out: Residual concentration) was 50 ± 3% and the “GH response compared with response to natural hGHRH(1-44)NH2” value (male Beagle dog) was “significantly larger”. The “R2 (60 min): Relative resistance to in vitro proteolysis in comparison with hGHRH(1-29)NH2” value ([2]; 60-min incubation in human serum) was 1.55 ± 0.04, the “R2 (180 min): Relative resistance to in vitro proteolysis in comparison with hGHRH(1-29)NH2” value ([2]; 180-min incubation in human serum) was 2.93 ± 0.87 and the Mean residual amount ([2]; human serum, incubation time 0 min) was 100%. For the same compound, the Mean residual amount ([2]; human serum, incubation time 420 min) was 50%, the remaining at 3 h, 15 µM ([2]; human, pooled human serum, 180-min incubation in human serum, read-out: Residual peptide concentration (180 min)) was 62 ± 2% and the remaining at 1 h, 15 µM ([2]; human, pooled human serum, human serum, incubation time 60 min, read-out: Mean residual amount) was 88%. For the same compound, the remaining at 2 h, 15 µM ([2]; human, pooled human serum, human serum, incubation time 120 min, read-out: Mean residual amount) was 76%, the remaining at 3 h, 15 µM ([2]; human, pooled human serum, human serum, incubation time 180 min, read-out: Mean residual amount) was 63% and the remaining at 7 h, 15 µM ([2]; human, pooled human serum, human serum, incubation time 420 min, read-out: Mean residual amount) was 50%.
